Measured values from patent US12503438B2, “Compounds for the treatment of kinase-dependent disorders” (Exelixis, Inc., priority 2019, dated 2025).

Legend:
Human Mer = target: T1, Human Mer (Homo sapiens, UniProt Q12866); assay: Human Mer kinase assay (33P-phosphoryl transfer radiometric, KinaseProfiler); conditions: biochemical activity; 10 μM ATP
T1 construct: Human Mer (residues R557-E882 with H628Q and R794A, 0.7 nM); purchased Eurofins Pharma Discovery Services UK Limited (KinaseProfiler service)
T1 sequence (Q12866 557-882 limits assumed): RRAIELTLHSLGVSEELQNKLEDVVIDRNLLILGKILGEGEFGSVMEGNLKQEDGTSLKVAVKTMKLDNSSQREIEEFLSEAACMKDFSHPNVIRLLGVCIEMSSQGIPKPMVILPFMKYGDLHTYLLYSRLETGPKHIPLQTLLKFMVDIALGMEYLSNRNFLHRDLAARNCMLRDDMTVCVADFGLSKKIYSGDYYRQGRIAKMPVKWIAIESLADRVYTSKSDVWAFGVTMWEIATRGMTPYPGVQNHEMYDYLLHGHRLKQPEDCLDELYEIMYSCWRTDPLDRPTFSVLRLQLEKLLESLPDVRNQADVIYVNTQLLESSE
Description: (§1) Kinase activity and compound inhibition were investigated using the ^33P-Phosphoryl transfer radiometric kinase assay, performed using the KinaseProfiler™ service of Eurofins Pharma Discovery Services UK Limited. Dose-response experiments were performed using nine compound concentrations in a 96-well microtiter plate. For each assay, all compounds were prepared to a 50× final assay concentration (50 μM) in 100% DMSO, then diluted in a half-log series, with the final top concentration at 1 μM. This working stock of the compound was added to the assay well as the first component in the reaction, followed by the remaining components as detailed in the following assay protocols below. The positive control wells (100% kinase activity) contain all components of the reaction including 2% DMSO (control for solvent effects), except the compound of interest. Blank wells contain all components of the reaction, with the reference inhibitor, staurosporine. This reference compound was used to abolish kinase activity and generated the 0% kinase activity base-line. IC50 values were calculated by nonlinear regression analysis using the sigmoidal dose-response (variable slope) curve fit on XLFit version 5.3 (ID Business Solutions).
Human Mer (residues R557-E882 with H628Q and R794A, 0.7 nM) was incubated with 8 mM MOPS pH 7.0, 0.2 mM EDTA, 30 mM NaCl, 250 μM GGMEDIYFEFMGGKKK, 10 mM magnesium acetate and 10 μM [y-^33P-ATP]. The reaction was initiated by the addition of the Mg/ATP mix. After incubation for 40 minutes at room temperature, the reaction was stopped by the addition of phosphoric acid to a concentration of 0.5%. A reaction aliquot of 10 μL was then spotted onto a P30 filtermat and washed four times for 4 minutes in 0.425% phosphoric acid and once in methanol prior to drying and scintillation counting. Incorporated ^33P was measured using the Wallac Microbeta scintillation counter (Perkin Elmer).

Met = Met (Homo sapiens, UniProt P08581); assay: Human Met kinase assay (33P-phosphoryl transfer radiometric, KinaseProfiler); design: Human Met (residues R974-S1390 with A1209G and V1290L, 3.4 nM); purchased Eurofins Pharma Discovery Services UK Limited (KinaseProfiler service); conditions: biochemical activity; 10 μM ATP; read-out: c-Met IC50
Chain of Met (P08581 974-1390): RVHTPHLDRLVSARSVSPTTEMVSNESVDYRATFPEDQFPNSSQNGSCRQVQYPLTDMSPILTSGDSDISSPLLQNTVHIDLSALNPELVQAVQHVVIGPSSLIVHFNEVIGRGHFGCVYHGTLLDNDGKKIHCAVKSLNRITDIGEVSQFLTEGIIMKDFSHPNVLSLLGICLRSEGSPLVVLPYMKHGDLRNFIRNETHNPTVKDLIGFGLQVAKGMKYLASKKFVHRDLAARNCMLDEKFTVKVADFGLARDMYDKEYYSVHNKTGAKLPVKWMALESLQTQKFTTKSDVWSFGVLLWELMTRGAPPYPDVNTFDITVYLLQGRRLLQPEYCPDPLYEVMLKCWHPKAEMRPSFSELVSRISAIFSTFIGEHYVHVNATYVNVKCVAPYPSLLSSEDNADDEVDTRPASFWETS
Description: as §1
(§2) Human Met (residues R974-S1390 with A1209G and V1290L, 3.4 nM) was incubated with 8 mM MOPS pH 7.0, 0.2 mM EDTA, 250 μM KKKGQEEEYVFIE, 1 mM sodium orthovanadate, 5 mM sodium-6-glycerophosphate, 10 mM magnesium acetate, and 10 μM [γ-^33P-ATP]. The reaction was initiated by the addition of the Mg/ATP mix. After incubation for 40 minutes at room temperature, the reaction was stopped by the addition of phosphoric acid to a concentration of 0.5%. A reaction aliquot of 10 μL was then spotted onto a P30 filtermat and washed four times for 4 minutes in 0.425% phosphoric acid and once in methanol prior to drying and scintillation counting. Incorporated ^33P was measured using the Wallac Microbeta scintillation counter (Perkin Elmer).

KDR = KDR (Homo sapiens, UniProt P35968); assay: Human KDR kinase assay (33P-phosphoryl transfer radiometric, KinaseProfiler); design: Human KDR (residues K790-V1356, 55 nM); purchased Eurofins Pharma Discovery Services UK Limited (KinaseProfiler service); conditions: biochemical activity; 10 μM ATP
Chain of KDR (P35968 790-1356): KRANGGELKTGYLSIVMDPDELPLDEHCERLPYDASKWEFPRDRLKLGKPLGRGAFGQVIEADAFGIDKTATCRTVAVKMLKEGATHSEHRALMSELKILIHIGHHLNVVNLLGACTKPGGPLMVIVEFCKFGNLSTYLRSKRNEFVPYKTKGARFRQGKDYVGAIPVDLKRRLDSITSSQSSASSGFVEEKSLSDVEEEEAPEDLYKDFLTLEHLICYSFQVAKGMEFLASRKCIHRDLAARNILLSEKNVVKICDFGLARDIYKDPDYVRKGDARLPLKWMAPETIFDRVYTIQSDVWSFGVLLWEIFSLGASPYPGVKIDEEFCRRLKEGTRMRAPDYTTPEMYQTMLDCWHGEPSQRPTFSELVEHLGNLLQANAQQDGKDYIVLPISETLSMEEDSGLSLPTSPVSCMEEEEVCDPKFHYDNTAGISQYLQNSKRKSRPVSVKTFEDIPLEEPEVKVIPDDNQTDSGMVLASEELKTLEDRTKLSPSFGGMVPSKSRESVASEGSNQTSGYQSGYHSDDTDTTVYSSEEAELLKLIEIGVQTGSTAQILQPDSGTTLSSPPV
Description: as §1
as §2, with “KDR” for “Met”, “K790-V1356, 55” for “R974-S1390 with A1209G and V1290L, 3.4”, “0.33 mg/mL myelin basic protein,” for “250 μM KKKGQEEEYVFIE, 1 mM sodium orthovanadate, 5 mM sodium-6-glycerophosphate,”

Row | IC50 (Human Mer) [nM] | IC50 (Met) [nM] | IC50 (KDR) [nM] | SMILES
1 | 10 to 100 | 10 to 100 | 10 to 100 | Cc1noc(C)c1-c1ccc2c(Oc3ccc(NC(=O)C4(C(=O)Nc5ccc(F)cc5)CC4)cc3)ccnc2c1 [Compound 53, 1-N-[4-[7-(3,5-Dimethyl-1,2-oxazol-4-yl)quinolin-4-yl]oxyphenyl]-1-N′-(4-fluorophenyl)cyclopropane-1,1-dicarboxamide]
2 | ≤ 10 | ≤ 10 | 10 to 100 | Cn1nccc1-c1ccc2c(Oc3ccc(NC(=O)C4(C(=O)Nc5ccc(F)cc5)CC4)cc3)ccnc2c1 [Compound 54, 1-N′-(4-Fluorophenyl)-1-N-[4-[7-(2-methylpyrazol-3-yl)quinolin-4-yl]oxyphenyl]cyclopropane-1,1-dicarboxamide]
3 | ≤ 10 | ≤ 10 | 10 to 100 | O=C(Nc1ccc(F)cc1)C1(C(=O)Nc2ccc(Oc3ccnc4cc(-c5cnoc5)ccc34)cc2)CC1 [Compound 57, 1-N′-(4-Fluorophenyl)-1-N-[4-[7-(1,2-oxazol-4-yl)quinolin-4-yl]oxyphenyl]cyclopropane-1,1-dicarboxamide]
4 | ≤ 10 | ≤ 10 | 10 to 100 | O=C(Nc1ccc(F)cc1)C1(C(=O)Nc2ccc(Oc3ccnc4cc(-c5cnn(C6CCNCC6)c5)ccc34)cc2)CC1 [Compound 60, 1-N′-(4-Fluorophenyl)-1-N-[4-[7-(1-piperidin-4-ylpyrazol-4-yl)quinolin-4-yl]oxyphenyl]cyclopropane-1,1-dicarboxamide]
5 | ≤ 10 | ≤ 10 | 10 to 100 | CN1CCC(n2cc(-c3ccc4c(Oc5ccc(NC(=O)C6(C(=O)Nc7ccc(F)cc7)CC6)cc5)ccnc4c3)cn2)CC1 [Compound 61, 1-N′-(4-Fluorophenyl)-1-N-[4-[7-[1-(1-methylpiperidin-4-yl)pyrazol-4-yl]quinolin-4-yl]oxyphenyl]cyclopropane-1,1-dicarboxamide]
6 | ≤ 10 | ≤ 10 | 10 to 100 | CC(=O)N1CCC(n2cc(-c3ccc4c(Oc5ccc(NC(=O)C6(C(=O)Nc7ccc(F)cc7)CC6)cc5)ccnc4c3)cn2)CC1 [Compound 62, 1-N-[4-[7-[1-(1-Acetylpiperidin-4-yl)pyrazol-4-yl]quinolin-4-yl]oxyphenyl]-1-N′-(4-fluorophenyl)cyclopropane-1,1-dicarboxamide]
7 | 100 to 1000 | 10 to 100 | 100 to 1000 | C[Si](C)(C)C#Cc1ccc2c(Oc3ccc(NC(=O)C4(C(=O)Nc5ccc(F)cc5)CC4)cc3)ccnc2c1 [Compound 63, 1-N′-(4-Fluorophenyl)-1-N-[4-[7-(2-trimethylsilylethynyl)quinolin-4-yl]oxyphenyl]cyclopropane-1,1-dicarboxamide]
8 | 10 to 100 | ≤ 10 | 10 to 100 | C#Cc1ccc2c(Oc3ccc(NC(=O)C4(C(=O)Nc5ccc(F)cc5)CC4)cc3)ccnc2c1 [Compound 64, 1-N-[4-(7-Ethynylquinolin-4-yl)oxyphenyl]-1-N′-(4-fluorophenyl)cyclopropane-1,1-dicarboxamide]
9 | 100 to 1000 | 100 to 1000 | 100 to 1000 | O=C(Nc1ccc(F)cc1)C1(C(=O)Nc2ccc(Oc3ccnc4cc(-c5cnn[nH]5)ccc34)cc2)CC1 [Compound 65, 1-N′-(4-Fluorophenyl)-1-N-[4-[7-(1H-triazol-5-yl)quinolin-4-yl]oxyphenyl]cyclopropane-1,1-dicarboxamide]
10 | ≤ 10 | ≤ 10 | 10 to 100 | O=C(Nc1ccc(F)cc1)C1(C(=O)Nc2ccc(Oc3ccnc4cc(-c5ncco5)ccc34)cc2)CC1 [Compound 66, 1-N′-(4-Fluorophenyl)-1-N-[4-[7-(1,3-oxazol-2-yl)quinolin-4-yl]oxyphenyl]cyclopropane-1,1-dicarboxamide]
11 | ≤ 10 | ≤ 10 | 10 to 100 | O=C(Nc1ccc(F)cc1)C1(C(=O)Nc2ccc(Oc3ccnc4cc(-c5cn[nH]c5)ccc34)cc2)CC1 [Compound 67, 1-N′-(4-Fluorophenyl)-1-N-[4-[7-(1H-pyrazol-4-yl)quinolin-4-yl]oxyphenyl]cyclopropane-1,1-dicarboxamide]
12 | ≤ 10 | ≤ 10 | 10 to 100 | O=C(Nc1ccc(F)cc1)C1(C(=O)Nc2ccc(Oc3ccnc4cc(-c5ccn[nH]5)ccc34)cc2)CC1 [Compound 68, 1-N′-(4-Fluorophenyl)-1-N-[4-[7-(1H-pyrazol-5-yl)quinolin-4-yl]oxyphenyl]cyclopropane-1,1-dicarboxamide]
13 | ≤ 10 | ≤ 10 | 10 to 100 | Cn1cnc(-c2ccc3c(Oc4ccc(NC(=O)C5(C(=O)Nc6ccc(F)cc6)CC5)cc4)ccnc3c2)c1 [Compound 69, 1-N′-(4-Fluorophenyl)-1-N-[4-[7-(1-methylimidazol-4-yl)quinolin-4-yl]oxyphenyl]cyclopropane-1,1-dicarboxamide]
14 | ≤ 10 | ≤ 10 | 10 to 100 | O=C(Nc1ccc(F)cc1)C1(C(=O)Nc2ccc(Oc3ccnc4cc(-c5cnc[nH]5)ccc34)cc2)CC1 [Compound 72, 1-N′-(4-Fluorophenyl)-1-N-[4-[7-(1H-imidazol-5-yl)quinolin-4-yl]oxyphenyl]cyclopropane-1,1-dicarboxamide]
15 | ≤ 10 | ≤ 10 | 10 to 100 | O=C(Nc1ccc(F)cc1)C1(C(=O)Nc2ccc(Oc3ccnc4cc(-c5nnco5)ccc34)cc2)CC1 [Compound 73, 1-N′-(4-Fluorophenyl)-1-N-[4-[7-(1,3,4-oxadiazol-2-yl)quinolin-4-yl]oxyphenyl]cyclopropane-1,1-dicarboxamide]
16 | ≤ 10 | ≤ 10 | 10 to 100 | O=C(Nc1ccc(F)cc1)C1(C(=O)Nc2ccc(Oc3ccnc4cc(-c5ncc[nH]5)ccc34)cc2)CC1 [Compound 74, 1-N′-(4-Fluorophenyl)-1-N-[4-[7-(1H-imidazol-2-yl)quinolin-4-yl]oxyphenyl]cyclopropane-1,1-dicarboxamide]
17 | ≤ 10 | ≤ 10 | 10 to 100 | Cn1ccnc1-c1ccc2c(Oc3ccc(NC(=O)C4(C(=O)Nc5ccc(F)cc5)CC4)cc3)ccnc2c1 [Compound 75, 1-N′-(4-Fluorophenyl)-1-N-[4-[7-(1-methylimidazol-2-yl)quinolin-4-yl]oxyphenyl]cyclopropane-1,1-dicarboxamide]
18 | ≤ 10 | ≤ 10 | 10 to 100 | COc1cc2c(Oc3ccc(NC(=O)C4(C(=O)Nc5ccc(F)cc5)CC4)cc3)ccnc2cc1-c1cnn(C)c1 [Compound 76, 1-N′-(4-Fluorophenyl)-1-N-[4-[6-methoxy-7-(1-methylpyrazol-4-yl)quinolin-4-yl]oxyphenyl]cyclopropane-1,1-dicarboxamide]
